Reference: patent US10390521B2, “Parkinsons disease model and methods” (Boston Medical Center Corporation, priority 2013, dated 2019)

Tests used:
PLA2g6 = PLA2g6 catalytic activity in homogenates of brain or MEFs; type: biochemical, mouse; conditions: no differences between KO^Ex2 and WT
Experimental: The activity of PLA2g6 (FIG. 14) was determined using modified PLA2 assay kit (Cayman, USA), as previously described (56, 63). Briefly, after each experimental treatment, MEFs were homogenized using a cold lysis buffer (10 mM Tris-HCl, pH 7.0, 300 mM sucrose, 0.5% Triton X-100). To identify specific activity of Ca^2+-independent PLA2g6, the assay buffers were modified to contain no Ca^2+, and phospholipase activity was assayed by incubating the samples with the substrate, 1-hexadecyl-2-arachidonoylthio-2-deoxy-sn-glycero-3-phosphorylcholine for 1 h at room temperature in a modified Ca^2+-free assay buffer (10 mM HEPES, pH 7.4, 300 mM NaCl, 60% glycerol, 8 mM Triton X-100, 4 mM EGTA, and 2 mg/ml bovine serum albumin). The generated free thiols were visualized by the addition of DTNB (5,5′-dithiobis(2-[…])) for 5 min, and the absorbance was determined at 405 nm using a standard microplate reader. In calculations of specific PLA2g6 activity a value of 10 mM^−1 was used as extinction coefficient for DTNB at 405 nm. Summary data present average (±SEM) from 3 independent experiments for each condition.

KO^Ex2 mice = assay: L-DOPA challenge, beam balance test; type: in vivo, mouse
Experimental: The balance beam test (FIG. 10d) was performed using standard approach (55). […] KO^ex2 and WT males from 8 to 24 month of age were tested. Each mouse was placed on a beam for 2 minutes, and its movement was recorded by video camera. The total travel distance, the number of missteps (paw faults, or slips) during travel were analyzed for each mouse, and data summarized for each group as mean±SEM; the numbers of animals used for each time point is identified on the graphs. L-DOPA challenge test (FIG. 10e) was performed on KO^ex2 and WT littermates mice at 12, 16 and 24 months of age. Control beam balance test was performed in the morning a day before L-DOPA challenge. In the morning of the following day, all mice received a single dose of L-3,4-dihydroxyphenylalanine (L-DOPA) via peritoneal injection. Three different doses (5, 10 and 25 mg/kg, Sigma) were tested on the same groups of animals in separate experiments performed with 2-3 days intervals. During each test 20 minutes before L-DOPA administration, mice were given 6 mg/kg of Benserazide (Sigma) to inhibit peripheral DOPA decarboxylase. Beam balance test was done 1 h after L-DOPA injection, as described above. Video-recorded data for each mouse were analyzed later, and summarized for each group as mean±SEM; the numbers of animals used for these studies is identified on the graphs.

[1] = tested on: store-operated Ca^2+ entry (SOCE); assay: Ca^2+ imaging, store-operated Ca^2+ entry in MEFs; type: cell-based, mouse; conditions: MEFs from WT mice
Experimental: (§1) MEFs were cultured in glass bottom dishes coated with fibronectin (2.5 μg/cm^2, Sigma, St. Louis, Mo., USA) for 24-48 hours. Intracellular Ca^2+ measurements were done similar to published earlier (57). Briefly, the cells were loaded with fura-2/AM (5 μM) (Invitrogen), and cytosolic Ca^2+ (measured as F340/F380 ratio) was recorded simultaneously in 10-20 individual cells using a dual-excitation fluorescence imaging system (Intracellular Imaging, USA): representative traces show an average (±SEM) for 10-20 cells recorded simultaneously. Ca^2+ changes were calculated as Δ Ratio(F340/F380), which is the difference between the basal and peak values of Ca^2+ responses.
(§2) The following treatments were used in Ca^2+ studies (FIG. 14): TPEN (N,N,N′,N′-Tetrakis(2-pyridylmethyl)ethylenediamine, Sigma, USA) was applied (400 μM) directly to the cells during recording, 3 min before 2 mM Ca^2+ addition; (S)-BEL ((S)-bromoenol lactone, Cayman, USA) was applied (50 μM for 20 min in serum-free medium at 37° C.) to the cells after their loading with fura-2/AM, and was washed away before the start of experiment; EGTA (2.5 mM) was added to 2 mM Ca^2+-containing bath solution right before ionomycin (IM, 1 μM) application.

[2] = tested on: intracellular Ca^2+ stores; assay: Ca^2+ imaging, ionomycin-induced Ca^2+ release from intracellular stores in MEFs; type: cell-based, mouse; conditions: MEFs from KO^Ex2 mice compared to WT; IM 1 μM, extracellular EGTA
Experimental: as §1, §2

O=C(O)CN(CCOCCOCCN(CC(=O)O)CC(=O)O)CC(=O)O [EGTA]
effect on PLA2g6 catalytic activity (PLA2g6): activation

N[C@@H](Cc1ccc(O)c(O)c1)C(=O)O [L-DOPA, L-3,4-dihydroxyphenylalanine]
number of missteps in beam balance test (KO^Ex2 mice; KO^Ex2 mice at 12, 16 and 24 months, L-DOPA 5-25 mg/kg, dose and age-dependent manner): significantly reduced | motor performance (PD-like motor dysfunction) (KO^Ex2 mice; KO^Ex2 mice, L-DOPA 5-25 mg/kg peritoneal injection, Benserazide 6 mg/kg 20 min before, test 1 h after injection): significantly improved

O=C1O/C(=C/Br)CC[C@H]1c1cccc2ccccc12 [S-BEL, (S)-bromoenol lactone]
effect on PLA2g6 catalytic activity (PLA2g6): inhibition | effect on TPEN-induced Ca^2+ entry ([1]; S-BEL 50 μM for 20 min pretreatment): S-BEL-sensitive

c1ccc(CN(CCN(Cc2ccccn2)Cc2ccccn2)Cc2ccccn2)nc1 [TPEN, N,N,N′,N′-Tetrakis(2-pyridylmethyl)ethylenediamine]
store-operated Ca^2+ entry ([1]; TPEN 400 μM): activated

C[C@H](CCC(=O)O)C[C@H](C)C[C@H](C)C(=O)/C=C(\O)[C@H](C)C[C@H](C)C/C=C/[C@@H](C)[C@@H](O)[C@@H](C)[C@@H](O)C[C@@H]1CC[C@@](C)([C@H]2CC[C@@](C)([C@@H](C)O)O2)O1 [ionomycin]
decrease in the peak of Ca^2+ release caused by ionomycin [2]: 60%
